Laboratory results reported in US7235267B1, “Brain cell or nerve cell-protecting agents comprising medicinal ginseng” (priority 1999, dated 2007).
Entries after “also recorded” stand apart in the source; their conditions may differ. Where two headings read alike, the source gives them in different places.

Key:
cultured nerve cells = settings: cited from earlier work
[1] = intracerebroventricular administration; cited from earlier work
[2] = system: SH-SP rats with MCA permanent occlusion; test: Cerebral infarct lesion and brain edema after ginsenoside Rb1 (intravenous or intracerebroventricular); assay type: in vivo, rat; settings: intravenous 6 μg/day for 28 days after MCA permanent occlusion
Procedure: Male SH-SP rats, at the age of 12-13 weeks, were used. Animals were bred in a room furnished with 12 hours light and dark cycles and water and feeds were supplied ad libitum. The cortical branch of the left middle cerebral artery (MCA) of SH-SP rats were coagulated and cut under inhalation anesthesia. Immediately after MCA permanent occlusion, ginsenoside Rb1 dissolved in physiological saline was infused once intravenously (6 μg or 60 μg), subsequently intravenously infused continuously for 28 days by using an Alza osmotic minipump (6 μg/day or 60 μg/day).
At 32 days after MCA permanent occlusion, the SH-SP rats were anesthetized with chloral hydrate, and they were perfused and fixed transcardially with 0.1 mole phosphate buffer containing 4% paraformaldehyde. The brains were dissected out and cerebrocortical infarct lesions were photographed.
In Japanese Patent Application No. Hei 10-365560, PCT/JP99/02550 (Brain cell or nerve cell-protective agents comprising ginsenoside Rb1), Japanese Patent Application No. Hei 11-340850, PCT/JP99/06804 (Cerebrovascular regeneration/reconstruction promoters and nerve tissue secondary degeneration inhibitors comprising ginsenoside Rb1), the present inventors (Sakanaka and Tanaka) measured areas of the left cerebral hemispheres and the left cerebrocortical infarct lesions on the photographs by using an image analyzer. […]

[3] = system: SH-SP rats with MCA permanent occlusion; settings: cited from earlier work
[4] = system: primary cultured myocardial cells; test: Myocardial cell survival in glucose-free, serum-free medium (α-actinin immunoblotting); assay type: cell-based, rat
Procedure: We have investigated whether or not ginsenoside Rb1 could actually suppress myocardial cell death in the concentration range for increasing the expression of Bcl-xL protein. For that purpose, for example, the protective effect of ginsenoside Rb1 on myocardial cells was examined when the primary cultured myocardial cells were cultured without addition of glucose. Ginsenoside Rb1 in the concentration range from 0 to 1 ng/ml was added to myocardial cells in serum-free DMEM without containing glucose, and the myocardial cells were cultured for 4 or 5 days. Subsequently, the samples for electrophoresis were prepared, and immunoblotting (Western blotting) was performed by using anti-striated muscle specific α-actinin antibody.
We (the present inventors) investigated whether ginsenoside Rb1 could actually suppress myocardial cell death in the concentration range for increasing the expression of Bcl-xL protein or not. For that purpose, for example, the protective effect of ginsenoside Rb1 on myocardial cells was examined when the primary cultured myocardial cells were cultured without addition of glucose. Ginsenoside Rb1 in the concentration range from 0 to 1 ng/ml was added to serum-free DMEM without containing glucose, and myocardial cells were cultured for 4 or 5 days. Subsequently, the sample for electrophoresis was prepared, and immunoblotting (Western blotting) was performed by using anti-striated muscle specific α-actinin antibody. […] Statistical analyses were conducted by ANOVA+Scheffe's post hoc test.

[5] = system: rats with ischemia/reperfusion or permanent occlusion of the middle cerebral artery; settings: cited from earlier work
ischemic brain = test: Oral administration of ginsenoside Rb1 per se, neuroprotective action; assay type: in vivo
[6] = intravenously administered small amount (prior application); cited from earlier work
[7] = intravenous administration (Saito et al. 1980); cited from earlier work

For `CC(C)=CCC[C@](C)(O[C@@H]1O[C@H](CO[C@@H]2O[C@H](CO)[C@@H](O)[C@H](O)[C@H]2O)[C@@H](O)[C@H](O)[C@H]1O)[C@H]1CC[C@]2(C)[C@@H]1[C@H](O)C[C@@H]1[C@@]3(C)CC[C@H](O[C@@H]4O[C@H](CO)[C@@H](O)[C@H](O)[C@H]4O[C@@H]4O[C@H](CO)[C@@H](O)[C@H](O)[C@H]4O)C(C)(C)[C@@H]3CC[C@]12C` [ginsenoside Rb1], the “suppression of apoptosis-like nerve cell death and Bcl-xL protein expression in nerve cells” value (cultured nerve cells; 1 fg/ml and 100 fg/ml (tested 1, 100 and 10^5 fg/ml)) is listed as “significant effects”, the “formation of lipid peroxides” value (cultured nerve cells; 100 fg/ml) is listed as “slight suppressive action” and the “concentrations reducing neurotoxicity of glutamic acid” value (cultured nerve cells; Kim et al. 1998, Liu and Zhang 1995) is listed as 0.11 to 11 µg/mL. The “concentration that may protect against apoptosis-like death” value (cultured nerve cells; Tanaka et al. 1998) was 500 µM, the “concentrations reducing necrosis of nerve cells caused by ferrous sulfate” value (cultured nerve cells; added in advance to the culture medium) was 0.1 to 100 fg/mL and the nerve cell death (cultured nerve cells; high concentration of ginsenoside Rb1, inventors' cell culture experiments) was “did not suppress”. For the same compound, the “metabolic activity of control cultured nerve cells” value (cultured nerve cells; not treated with SNP) was “no effect”, the “concentrations enhancing expression of Bcl-xL in cultured neurons” value (cultured nerve cells; prior application) was 1˜100 fg/ml and the “extracellular concentrations protecting nerve cells injured by SNP” value (cultured nerve cells; sodium nitroprusside treatment (prior application)) was 1 to 100 fg/mL. For the same compound, the “brain temperature, cerebral blood flow or blood pressure” value [1] was “no effects”, the “difference in size between left and right cerebral hemisphere (brain edema)” value [2] was “no difference in size” and the “cerebral infarct lesions (photographs at 32 days)” value ([2]; all 8 cases) was “obviously reduced”. For the same compound, the “ischemia-induced place navigation disability” value ([3]; ginsenoside Rb1 intracerebroventricular infusion immediately after permanent MCA occlusion) was “ameliorated”, the “ischemia-induced place navigation disability” value ([3]; ginsenoside Rb1 repetitive or continuous intravenous 6 μg or 60 μg/day) was “significantly ameliorated” and the “protective effect on myocardial cells” value ([4]; 0.01 fg/ml, n=3) was “significant effects are not noted”. For the same compound, the “striated muscle-specific α-actinin by immunoblotting (myocardial cell survival)” value ([4]; 1 fg/ml to 10^4 fg/ml, glucose-free serum-free medium, 4-5 days) was “significantly detected”, the “concentrations promoting survival of myocardial cells” value ([4]; FIG. 26) was 1-10^4 fg/ml and the effect on infarction ([5]; intravenous 10 mg/kg before permanent occlusion of the middle cerebral artery) was “absolutely no effect”. For the same compound, the “reduction of size of the infarction vs control” value ([5]; intravenous 40 mg/kg before permanent occlusion of the middle cerebral artery) was “about 14%”, the “reduction of infarction size vs control” value ([5]; single intravenous 10-40 mg/kg after the reperfusion) was 12%-35% and the “reduction of infarction size vs control” value ([5]; single intravenous 10-40 mg/kg before ischemia, ischemia/reperfusion model) was 20%-49%. For the same compound, the “neuroprotective action / protective action on the ischemic brain” value (ischemic brain) was “did not show protective effects; also recorded: did not exhibit neuroprotective action; also recorded: did not exhibit any protective action”, the “transfer into the brain and nervous systems” value [6] was “transferred quickly” and the LD50 [7] was “approximately 448 mg/kg”.
